What all share (format): in vivo
Assay [1] deals with Blattella germanica. Put plainly: Knockdown spray test on Blattella germanica, 2.0% w/v oil formulation (Test Example 1). To be noted: topical, 0.25 h, active ingredient 2.0% w/v, 1.5 ml sprayed, within 15 minutes, read-out: knockdown rate of the test insects within 15 minutes. How it is done: Ten Blattella germanica (5 males and 5 females) were released in a test container (8.75 cm in diameter, 7.5 cm in height, and the bottom made of 16 mesh metallic wire) with the inner wall on which butter was applied, and the container was placed on the bottom of a test chamber (bottom: 46 cm×46 cm, height: 70 cm). From a height of 60 cm above the upper surface of the container, 1.5 ml of the test drug solution was sprayed using a spray gun (a spraying pressure of 0.42 kg/cm^2). Thirty seconds after spraying, the container was taken out from the test chamber, and after 2 minutes, 5 minutes and 15 minutes, the number of knocked-down insects was counted to obtain a knockdown rate. The knockdown rate was calculated by the following equation.
(§1) Knockdown Rate (%)=(Number of Knocked-down Insects/Number of Tested Insects)×100

Assay [2] deals with Musca domestica. Put plainly: Knockdown spray test on adult Musca domestica (Test Example 3). To be noted: topical, 0.25 h, active ingredient 2.0% w/v, 0.5 ml sprayed, within 15 minutes, read-out: knockdown rate of the test insects within 15 minutes. How it is done: Ten adult Musca domestica (five males and five females) were released in a polyethylene cup (bottom diameter: 10.6 cm), and the cup was covered with a 16-mesh nylon gauze. The polyethylene cup was placed on the bottom of a test chamber (bottom: 46 cm×46 cm, height: 70 cm). From a height of 30 cm above the upper surface of the polyethylene cup, 0.5 ml of the test drug solution was sprayed using a spray gun (a spraying pressure of 0.9 kg/cm^2). Immediately after spraying, the cup was taken out from the test chamber, and after 2 minutes, 5 minutes and 15 minutes, the number of knocked-down insects was counted to obtain a knockdown rate. The knockdown rate was calculated by the following equation.
as §1

Assay [3] deals with Culex pipiens pallens. The assay can be described thus: Knockdown spray test on adult Culex pipiens pallens (Test Example 4). As to conditions: topical, 0.25 h, active ingredient 0.1% w/v, 0.5 ml sprayed, within 15 minutes, read-out: knockdown rate of the test insects within 15 minutes. An outline of the steps: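 Knockdown counts were taken 2, 5 and 15 min after spraying and expressed as percent of the 10 adults tested. For the spray, 0.5 ml of solution was applied by spray gun (0.4 kg/cm^2) from 30 cm above a gauze-covered cup in a test chamber; the cup was taken out right after spraying.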

The subject of the next assay is Plutella xylostella. The assay can be described thus: Foliar spray test on Plutella xylostella on cabbage (Test Example 10). To be noted: 120 h, third instar larvae of Plutella xylostella on cabbage, 500 ppm spray 20 ml/cup, after five days, read-out: controlling value. How it is done: On the other hand, cabbage was planted in a polyethylene cup, and grown until the third-fourth true leaf was spread. The test spray solution was sprayed to the cabbage at a ratio of 20 ml/cup. After the drug solution sprayed on the cabbage was dried, 10 third instar larvae of Plutella xylostella were allowed to parasitize the cabbage. After five days, the number of Plutella xylostella was investigated, and the controlling value was calculated according to the following standard. Controlling value (%)={1−(Cb×Tai)/(Cai×Tb)}×100 In the equation, the symbols represent as follows. Cb: the number of insects in a non-treated section before treatment Cai: the number of insects in a non-treated section on observation Tb: the number of insects in a treated section before treatment Tai: the number of insects in a treated section on observation

The test system of assay [4] is Culex pipiens pallens. Put plainly: Larvicidal test on Culex pipiens pallens, eight days (Test Example 7). As to conditions: 192 h; last-instar larvae of Culex pipiens pallens; 3.5 ppm in water; eight days later; read-out: death rate. On the procedure: 20 last-instar larvae of Culex pipiens pallens were released into a liquid to which 0.7 ml of the above test drug solution was added to 100 ml of ion-exchanged water (a concentration of the active ingredient of 3.5 ppm). Eight days later, the life and death of the Culex pipiens pallens was examined, and the death rate was calculated. The death rate was calculated by the following equation.
Death rate (%)=(Number of dead insects/Number of tested insects)×100

Assay [5] deals with Musca domestica. Put plainly: Filter paper/sucrose bait death rate test on Musca domestica (Test Example 5). To be noted: female imagoes of Musca domestica, 0.7 ml on filter paper, after 24 hours. An outline of the steps:
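Ten female imagoes were confined in a sealed cup over a filter paper treated with 0.7 ml of test solution and 30 mg sucrose bait. Mortality was scored at 24 h and expressed as percent of tested insects killed.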

In assay [6] the test system is Blattella germanica. Put plainly: Knockdown spray test on Blattella germanica, 0.1% w/v oil formulation (Test Example 2). To be noted: topical, 0.25 h, active ingredient 0.1% w/v, 1.5 ml sprayed, within 15 minutes, read-out: knockdown rate of the test insects within 15 minutes. The procedure, abridged:
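Ten German cockroaches (5 males, 5 females) in a mesh-bottomed, butter-walled container were sprayed with 1.5 ml test solution from 60 cm at 0.42 kg/cm^2 inside a chamber.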

Where only a bound is given, the exact number is not on record here.

As to `O=C(NCC1CCOC1)c1cc(COCc2ccccc2)on1` (stereo not drawn) [(13), N-(tetrahydrofuran-3-ylmethyl)-5-benzyloxymethylisoxazole-3-carboxamide], the pest or weed control at 2 % strength in the assay with Blattella germanica [1] and with Musca domestica [2] was no less than 80% throughout. Further, the pest or weed control at 0.1 % strength in the assay with Culex pipiens pallens [3] was no less than 80%. Further, in the assay with Plutella xylostella, the pest or weed control at 500 ppm was no less than 90%.

As to `O=C(NCC1CCOCC1)c1cc(COCc2ccccc2)on1` [(15), N-(tetrahydropyran-4-ylmethyl)-5-benzyloxymethylisoxazole-3-carboxamide], the pest or weed control at 2 % strength with Blattella germanica [1] and in the assay with Musca domestica [2] was no less than 80% throughout. The pest or weed control at 0.1 % strength in the assay with Culex pipiens pallens [3] was no less than 80%. The pest or weed control at 500 ppm in the assay with Plutella xylostella was no less than 90%.

In the case of `O=C(NCC1CCOCC1)c1cc(COCc2ccc3ccccc3c2)on1` [(21), N-(tetrahydropyran-4-ylmethyl)-5-(2-naphthylmethoxymethyl)isoxazole-3-carboxamide], the pest or weed control at 2 % strength in the assay on Blattella germanica [1] and with Musca domestica [2] was no less than 80% each time. In addition, the pest or weed control at 0.1 % strength in the assay with Culex pipiens pallens [3] is no less than 80%. Moreover, in the assay with Culex pipiens pallens [4], the pest or weed control at 3.5 ppm is no less than 90%.

With `O=C(NCC1CCOC1)c1cc(CCCc2ccccc2)on1` (stereo not drawn) [(22), N-(tetrahydrofuran-3-ylmethyl)-5-(3-phenylpropyl)isoxazole-3-carboxamide], the pest or weed control at 2 % strength in the assay with Blattella germanica [1] and with Musca domestica [2] was no less than 80% throughout. Besides, the pest or weed control at 0.1 % strength in the assay with Culex pipiens pallens [3] is no less than 80%. In the assay on Musca domestica [5], this molecule returned a pest or weed control at 500 ppm of no less than 90%.

Regarding `O=C(NCC1CCOC1)c1cc(Cc2ccccc2)on1` (stereo not drawn) [(26), N-(tetrahydrofuran-3-ylmethyl)-5-benzylisoxazole-3-carboxamide], the pest or weed control at 2 % strength with Blattella germanica [1] and in the assay on Musca domestica [2] was no less than 80% in each case. Further, the pest or weed control at 0.1 % strength in the assay on Culex pipiens pallens [3] is no less than 80%. This molecule yielded a pest or weed control at 500 ppm in the assay with Musca domestica [5] of no less than 90%.

`O=C(NCC1CCOC1)c1cc(COCc2ccc(Cl)cc2)on1` (stereo not drawn) [(70), N-(tetrahydrofuran-3-ylmethyl)-5-(4-chlorobenzyloxymethyl)isoxazole-3-carboxamide]: the pest or weed control at 0.1 % strength in the assay with Blattella germanica [6] and in the assay with Culex pipiens pallens [3] was no less than 80% throughout. Moreover, the pest or weed control at 3.5 ppm in the assay with Culex pipiens pallens [4] is no less than 90%. Also, the pest or weed control at 500 ppm in the assay with Plutella xylostella was no less than 90%.

For `O=C(NCC1CCOC1)c1cc(COCc2cccc(OC(F)(F)F)c2)on1` (stereo not drawn) [(78), N-(tetrahydrofuran-3-ylmethyl)-5-(3-trifluoromethoxybenzyloxymethyl)isoxazole-3-carboxamide], the pest or weed control at 0.1 % strength in the assay on Blattella germanica [6] and in the assay with Culex pipiens pallens [3] was no less than 80% throughout. Besides, in the assay on Culex pipiens pallens [4], the pest or weed control at 3.5 ppm was no less than 90%.

For `O=C(NCC1CCOC1)c1cc(COCc2ccc(Br)cc2)on1` (stereo not drawn) [(91), N-(tetrahydrofuran-3-ylmethyl)-5-(4-bromobenzyloxymethyl)isoxazole-3-carboxamide], the pest or weed control at 0.1 % strength in the assay with Blattella germanica [6] and with Culex pipiens pallens [3] was no less than 80% each time. Also, the pest or weed control at 3.5 ppm with Culex pipiens pallens [4] was no less than 90%. Besides, the pest or weed control at 500 ppm in the assay with Plutella xylostella was no less than 90%.

For `O=C(NCC1CCOCC1)c1cc(COCc2ccc(SC(F)(F)F)cc2)on1` [(96), N-(tetrahydropyran-4-ylmethyl)-5-(4-trifluoromethylthiobenzyloxymethyl)isoxazole-3-carboxamide], the pest or weed control at 0.1 % strength in the assay on Culex pipiens pallens [3] is no less than 80%. Further, in the assay on Culex pipiens pallens [4], the pest or weed control at 3.5 ppm was no less than 90%.

With `O=C(NCC1CCOC1)c1cc(COCC2CCc3ccccc3C2)on1` (stereo not drawn) [(118), N-(tetrahydrofuran-3-ylmethyl)-5-(1,2,3,4-tetrahydronaphthalen-2-ylmethoxymethyl)isoxazole-3-carboxamide], the pest or weed control at 2 % strength in the assay with Blattella germanica [1] and in the assay on Musca domestica [2] was no less than 80% in each case. In the assay on Culex pipiens pallens [3], the pest or weed control at 0.1 % strength was no less than 80%. Further, in the assay on Plutella xylostella, the pest or weed control at 500 ppm was no less than 90%.

For the molecule `O=C(NCC1CCOC1)c1cc(CCCCOc2ccccc2)on1` (stereo not drawn) [(146), N-(tetrahydrofuran-3-ylmethyl)-5-(4-phenoxybutyl)isoxazole-3-carboxamide], the pest or weed control at 2 % strength in the assay with Blattella germanica [1] and in the assay with Musca domestica [2] was no less than 80% each time. Moreover, the pest or weed control at 0.1 % strength in the assay with Culex pipiens pallens [3] is no less than 80%. Moreover, in the assay on Culex pipiens pallens [4], the pest or weed control at 3.5 ppm was no less than 90%.

For the molecule `O=C(NCC1CCOC1)c1cc(Cc2cccc(C(F)(F)F)c2)on1` (stereo not drawn) [(158), N-(tetrahydrofuran-3-ylmethyl)-5-(3-trifluoromethylbenzyl)isoxazole-3-carboxamide], the pest or weed control at 2 % strength in the assay on Blattella germanica [1] and with Musca domestica [2] was no less than 80% each time. In addition, the pest or weed control at 0.1 % strength in the assay with Culex pipiens pallens [3] was no less than 80%.

For the molecule `COC(=O)c1c(C(=O)NCC2CCOC2)noc1COCc1ccccc1` (stereo not drawn) [(167), N-(tetrahydrofuran-3-ylmethyl)-(5-benzyloxymethyl-4-methoxycarbonyl)isoxazole-3-carboxamide], the pest or weed control at 3.5 ppm in the assay on Culex pipiens pallens [4] is no less than 90%.

On to `O=C(NCC1CCOCC1)c1cc(COc2cccc(C(F)(F)F)c2)on1` [(199), N-(tetrahydropyran-4-ylmethyl)-5-(3-trifluoromethylphenoxymethyl)isoxazole-3-carboxamide], for which the pest or weed control at 0.1 % strength with Culex pipiens pallens [3] was no less than 80%. Moreover, the pest or weed control at 3.5 ppm in the assay on Culex pipiens pallens [4] is no less than 90%.

`O=C(NCC1CCOC1)c1cc(COCC#Cc2ccccc2)on1` (stereo not drawn) [(240), N-(tetrahydrofuran-3-ylmethyl)-5-(3-phenyl-2-propionyl)oxymethylisoxazole-3-carboxamide]: the pest or weed control at 2 % strength with Blattella germanica [1] and in the assay with Musca domestica [2] was no less than 80% throughout. For the same molecule, the pest or weed control at 0.1 % strength in the assay with Blattella germanica [6] and with Culex pipiens pallens [3] was no less than 80% in each case.

`O=C(NCC1CCOC1)c1cc(CCCc2ccc(Cl)cc2)on1` (stereo not drawn) [(252), N-(tetrahydrofuran-3-ylmethyl)-5-[3-(4-chlorophenyl]propyl) isoxazole-3-carboxamide]: the pest or weed control at 0.1 % strength with Blattella germanica [6] and in the assay with Culex pipiens pallens [3] was no less than 80% throughout. In the assay with Musca domestica [5], this molecule displayed a pest or weed control at 500 ppm of no less than 90%. Further, the pest or weed control at 3.5 ppm in the assay on Culex pipiens pallens [4] was no less than 90%.

Turning to `Cc1c(C(=O)NCC2CCOC2)noc1CCCc1ccccc1F` (stereo not drawn) [(282), N-(tetrahydrofuran-3-ylmethyl)-4-methyl-5-[3-(2-fluorophenyl)propyl]isoxazole-3-carboxamide], the pest or weed control at 0.1 % strength with Blattella germanica [6] and in the assay on Culex pipiens pallens [3] was no less than 80% in each case. In the assay on Musca domestica [5], the pest or weed control at 500 ppm is no less than 90%. In addition, in the assay on Culex pipiens pallens [4], the pest or weed control at 3.5 ppm is no less than 90%.

In the case of `CC1(CNC(=O)c2cc(COCc3ccccc3)on2)COC1` [(334), N-(3-methyloxetan-3-ylmethyl)-5-benzyloxymethylisoxazole-3-carboxamide], the pest or weed control at 2 % strength in the assay with Blattella germanica [1] and in the assay with Musca domestica [2] was no less than 80% each time. Also, the pest or weed control at 0.1 % strength in the assay with Blattella germanica [6] and with Culex pipiens pallens [3] was no less than 80% throughout.

The values above are taken from patent US20150344466A1 (SUMITOMO CHEMICAL COMPANY, LIMITED, priority 2013, published 2015).
